Consider eight compounds from patent US20260242391A1 (priority 2023, published 2026).

In data set [1] the test system is HL-60. Kind of data set: HL-60 differentiation potency. The format is cell-based. The settings on record: Homo sapiens.
A short description of data set [2]: in vitro. The settings on record: human.

`C[C@H]1[C@H](NCc2cnn(C)c2)O[C@@H]2O[C@@]3(C)CC[C@H]4[C@H](C)CC[C@@H]1[C@@]24OO3` [Compound 46, (3R,5aS,6R,8aS, 9R,10R,12R, 12aR)-3,6,9-trimethyl-N-((1-methyl-1H-pyrazol-4-yl)methyl)decahydro-12H-3,12-epoxy[1,2] dioxepino[4,3-i] isochromen-10-amine] had an EC50 in data set [1] of 1.46 µM. The compound further displayed an IC50 in data set [2] of 4.38 µM.

Compound `C[C@H]1[C@@H](OCc2ccc3c(c2)OC(F)(F)O3)O[C@@H]2O[C@@]3(C)CC[C@H]4[C@H](C)CC[C@@H]1[C@@]24OO3` [Compound 1, (3R,5aS,6R,8aS, 9R,10S,12R, 12aR)-10-((2,2-difluorobenzo[d] [1,3]dioxol-5-yl)methoxy)-3,6,9-trimethyldeca-hydro-12H-3,12-epoxy[1,2] dioxepino[4,3-i]isochromene] registered an EC50 in data set [1] of 0.0111 µM. In addition, in data set [2], the midpoint of inhibition, the IC50, lay at 0.0106 µM.

The compound `COC(=O)[C@@H]1CCN(CC[C@H]2O[C@@H]3O[C@@]4(C)CC[C@H]5[C@H](C)CC[C@@H]([C@H]2C)[C@@]35OO4)C1` [Compound 70, methyl (R)-1-(2-((3R,5aS,6R,8aS, 9R,10R,12R, 12aR)-3,6,9-trimethyldeca-hydro-12H-3,12-epoxy[1,2]dioxepino[4,3-i]isochromen-10-yl)ethyl) pyrrolidine-3-carboxylate] showed an EC50 in data set [1] greater than 20 µM. Further, the IC50 in data set [2] is greater than 20 µM.

For the compound `C[C@H]1[C@@H](Oc2ccc(C(=O)NCC(=O)O)cc2)O[C@@H]2O[C@@]3(C)CC[C@H]4[C@H](C)CC[C@@H]1[C@@]24OO3` [Compound 142, (4-(((3R,5aS,6R,8aS, 9R,10S,12R, 12aR)-3,6,9-trimethyldeca-hydro-12H-3,12-epoxy[1,2]dioxepino[4,3-i]isochromen-10-yl)oxy)benzoyl) glycine], the EC50 in data set [1] was 1.82 µM. The compound also came in with an IC50 in data set [2] greater than 20 µM.

`Cc1cc(CC(=O)O)ccc1O[C@H]1O[C@@H]2O[C@@]3(C)CC[C@H]4[C@H](C)CC[C@@H]([C@H]1C)[C@@]24OO3` [Compound 8, 2-(3-methyl-4-(((3R,5aS,6R,8aS, 9R,10S,12R, 12aR)-3,6,9-trimethyldeca-hydro-12H-3,12-epoxy[1,2]dioxepino[4,3-i]isochromen-10-yl)oxy)phenyl) acetic acid] yielded an EC50 in data set [1] of 0.0577 µM. The same compound gave a half-maximal inhibitory concentration (IC50) in data set [2] greater than 20 µM.

Turning to `C[C@H]1[C@@H](OCC2(C(=O)O)CCC2)O[C@@H]2O[C@@]3(C)CC[C@H]4[C@H](C)CC[C@@H]1[C@@]24OO3` [Compound 127, 1-((((3R,5aS,6R, 8aS,9R,10S,12R, 12aR)-3,6,9-trimethyldeca-hydro-12H-3,12-epoxy[1,2]dioxepino[4,3-i]isochromen-10-yl)oxy)methyl) cyclobutane-1-carboxylic acid], it took 8.88 µM to reach a half-maximal effect in data set [1] (EC50). The compound further had an IC50 in data set [2] greater than 20 µM.

In data set [1], `C[C@H]1[C@@H](OCC(=O)N[C@H]2CC[C@@H](C(=O)O)C2)O[C@@H]2O[C@@]3(C)CC[C@H]4[C@H](C)CC[C@@H]1[C@@]24OO3` [Compound 152, (1R,3S)-3-(2-(((3R,5aS,6R, 8aS,9R,10S,12R, 12aR)-3,6,9-trimethyldeca-hydro-12H-3,12-epoxy[1,2]dioxepino[4,3-i]isochromen-10-yl)oxy)acetamido) cyclopentane-1-carboxylic acid] registered an EC50 of 8.48 µM. The compound also yielded an IC50 in data set [2] greater than 20 µM.

`COc1cc(CC(=O)O)ccc1O[C@H]1O[C@@H]2O[C@@]3(C)CC[C@H]4[C@H](C)CC[C@@H]([C@H]1C)[C@@]24OO3` [Compound 3, 2-(3-methoxy-4-(((3R,5aS,6R, 8aS,9R,10S,12R, 12aR)-3,6,9-trimethyldeca-hydro-12H-3,12-epoxy[1,2]dioxepino[4,3-i]isochromen-10-yl)oxy)phenyl) acetic acid]: in data set [1], it took 0.0423 µM to reach a half-maximal effect (EC50). Further, the IC50 in data set [2] was greater than 20 µM.

The term EC50 denotes the concentration needed to bring the measured effect to its halfway point. Read a high EC50 as lower potency in that assay. As usually defined, the IC50 is the concentration that gives 50% inhibition. Read a low IC50 as inhibition by little substance.
